How the values were obtained:
[1] = target: Aurora kinase B (Homo sapiens) (UniProt Q96GD4); experiment: AURKB SGC Tm panel (DSF); conditions: Compound concentration 20.0 uM
[2] = target: Calcium/calmodulin-dependent protein kinase type II subunit beta (Homo sapiens) (UniProt Q13554); experiment: CAMK2B SGC Tm panel (DSF); conditions: Compound concentration 20.0 uM
[3] = target: Ephrin type-A receptor 5 (Homo sapiens) (UniProt P54756); experiment: EPHA5 SGC Tm panel (DSF); conditions: Compound concentration 20.0 uM
Ephrin type-A receptor 5 (Homo sapiens), sequence (P54756 whole entry): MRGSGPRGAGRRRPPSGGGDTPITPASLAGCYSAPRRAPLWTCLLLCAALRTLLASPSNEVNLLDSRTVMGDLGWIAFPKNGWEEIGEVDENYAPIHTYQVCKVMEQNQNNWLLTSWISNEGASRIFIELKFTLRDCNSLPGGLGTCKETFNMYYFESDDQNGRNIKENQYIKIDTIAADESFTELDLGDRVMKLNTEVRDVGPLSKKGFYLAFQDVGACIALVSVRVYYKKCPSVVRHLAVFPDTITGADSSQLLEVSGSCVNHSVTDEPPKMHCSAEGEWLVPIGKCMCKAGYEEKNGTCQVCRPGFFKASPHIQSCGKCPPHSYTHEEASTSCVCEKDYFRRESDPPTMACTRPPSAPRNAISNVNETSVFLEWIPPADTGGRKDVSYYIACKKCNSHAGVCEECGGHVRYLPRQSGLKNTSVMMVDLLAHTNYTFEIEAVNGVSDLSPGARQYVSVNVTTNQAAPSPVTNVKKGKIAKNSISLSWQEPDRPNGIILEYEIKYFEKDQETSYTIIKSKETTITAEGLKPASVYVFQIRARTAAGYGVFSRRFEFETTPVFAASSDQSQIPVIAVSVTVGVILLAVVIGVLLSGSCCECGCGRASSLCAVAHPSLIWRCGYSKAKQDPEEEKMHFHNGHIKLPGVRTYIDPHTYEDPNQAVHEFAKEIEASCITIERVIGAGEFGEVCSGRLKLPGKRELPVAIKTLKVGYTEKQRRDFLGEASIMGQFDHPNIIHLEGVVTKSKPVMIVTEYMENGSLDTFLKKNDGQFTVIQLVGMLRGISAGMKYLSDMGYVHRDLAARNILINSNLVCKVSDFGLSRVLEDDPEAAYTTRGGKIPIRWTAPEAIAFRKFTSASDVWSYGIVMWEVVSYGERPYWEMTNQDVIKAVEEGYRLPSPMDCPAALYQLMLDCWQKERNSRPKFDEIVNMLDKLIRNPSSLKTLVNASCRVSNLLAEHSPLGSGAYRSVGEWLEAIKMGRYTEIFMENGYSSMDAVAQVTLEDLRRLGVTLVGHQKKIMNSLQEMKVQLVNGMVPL

[4] = target: Mitogen-activated protein kinase 1 (Homo sapiens) (UniProt P28482); experiment: MAPK1 SGC Tm panel (DSF); conditions: Compound concentration 20.0 uM
Mitogen-activated protein kinase 1 (Homo sapiens), sequence (P28482 whole entry): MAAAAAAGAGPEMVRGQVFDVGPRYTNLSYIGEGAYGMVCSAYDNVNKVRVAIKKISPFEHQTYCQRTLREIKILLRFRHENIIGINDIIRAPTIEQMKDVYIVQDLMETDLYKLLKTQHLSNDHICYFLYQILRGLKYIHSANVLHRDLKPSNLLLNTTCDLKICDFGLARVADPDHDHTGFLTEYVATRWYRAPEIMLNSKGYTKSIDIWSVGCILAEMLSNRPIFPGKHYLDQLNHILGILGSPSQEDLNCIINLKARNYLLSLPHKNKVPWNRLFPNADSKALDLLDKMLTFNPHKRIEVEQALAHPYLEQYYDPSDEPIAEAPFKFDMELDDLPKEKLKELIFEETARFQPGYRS

[5] = target: Maternal embryonic leucine zipper kinase (Homo sapiens) (UniProt Q14680); experiment: MELK SGC Tm panel (DSF); conditions: Compound concentration 20.0 uM
Maternal embryonic leucine zipper kinase (Homo sapiens), sequence (Q14680 whole entry, looked up): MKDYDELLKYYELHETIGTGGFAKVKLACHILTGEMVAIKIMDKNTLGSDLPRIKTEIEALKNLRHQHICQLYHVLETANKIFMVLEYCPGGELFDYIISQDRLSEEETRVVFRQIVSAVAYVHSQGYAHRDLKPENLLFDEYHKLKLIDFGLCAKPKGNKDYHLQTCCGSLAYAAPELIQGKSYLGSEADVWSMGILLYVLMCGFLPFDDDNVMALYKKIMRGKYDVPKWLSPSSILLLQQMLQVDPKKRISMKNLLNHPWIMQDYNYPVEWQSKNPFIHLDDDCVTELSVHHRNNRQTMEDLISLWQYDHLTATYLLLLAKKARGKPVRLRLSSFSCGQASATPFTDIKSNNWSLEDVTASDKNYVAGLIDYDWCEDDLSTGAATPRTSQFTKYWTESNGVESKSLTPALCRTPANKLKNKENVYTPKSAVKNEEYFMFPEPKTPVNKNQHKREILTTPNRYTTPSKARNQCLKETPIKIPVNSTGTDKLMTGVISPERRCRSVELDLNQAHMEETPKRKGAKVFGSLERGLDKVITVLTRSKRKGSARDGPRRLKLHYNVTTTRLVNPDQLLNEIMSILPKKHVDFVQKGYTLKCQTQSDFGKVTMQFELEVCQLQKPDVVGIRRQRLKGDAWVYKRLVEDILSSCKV

[6] = target: Serine/threonine-protein kinase Nek7 (Homo sapiens) (UniProt Q8TDX7); experiment: NEK7 SGC Tm panel (DSF); conditions: Compound concentration 20.0 uM
Serine/threonine-protein kinase Nek7 (Homo sapiens), sequence (Q8TDX7 whole entry, looked up): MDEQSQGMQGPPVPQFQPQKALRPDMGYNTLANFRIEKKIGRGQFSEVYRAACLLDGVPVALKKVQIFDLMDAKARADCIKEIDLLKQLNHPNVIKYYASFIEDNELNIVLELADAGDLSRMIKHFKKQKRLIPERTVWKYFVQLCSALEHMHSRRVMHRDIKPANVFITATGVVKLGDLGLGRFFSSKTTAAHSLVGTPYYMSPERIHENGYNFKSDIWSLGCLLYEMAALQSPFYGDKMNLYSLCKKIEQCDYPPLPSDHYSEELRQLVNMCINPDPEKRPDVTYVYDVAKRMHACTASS

[7] = target: Cyclin-dependent kinase 16 (Homo sapiens) (UniProt Q00536); experiment: PCTK1 SGC Tm panel (DSF); conditions: Compound concentration 20.0 uM
Cyclin-dependent kinase 16 (Homo sapiens), sequence (Q00536 whole entry): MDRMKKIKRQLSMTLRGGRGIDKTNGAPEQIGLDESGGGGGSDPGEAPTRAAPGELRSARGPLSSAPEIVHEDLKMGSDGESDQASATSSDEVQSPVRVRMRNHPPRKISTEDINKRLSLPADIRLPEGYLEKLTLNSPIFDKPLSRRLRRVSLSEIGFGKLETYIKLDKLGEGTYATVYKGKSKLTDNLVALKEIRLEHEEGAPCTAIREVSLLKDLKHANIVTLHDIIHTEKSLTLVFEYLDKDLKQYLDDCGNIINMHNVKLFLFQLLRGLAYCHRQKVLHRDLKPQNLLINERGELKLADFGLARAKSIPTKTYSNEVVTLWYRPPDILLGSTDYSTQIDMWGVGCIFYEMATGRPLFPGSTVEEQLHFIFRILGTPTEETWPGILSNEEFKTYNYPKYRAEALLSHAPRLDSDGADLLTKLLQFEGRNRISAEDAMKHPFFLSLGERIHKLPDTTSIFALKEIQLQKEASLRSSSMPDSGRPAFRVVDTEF

[8] = target: Muscarinic acetylcholine receptor M1 (Homo sapiens) (UniProt P11229); conditions: Compound concentration 10.0 uM
Muscarinic acetylcholine receptor M1 (Homo sapiens), sequence (P11229 whole entry, the tested form may be a part): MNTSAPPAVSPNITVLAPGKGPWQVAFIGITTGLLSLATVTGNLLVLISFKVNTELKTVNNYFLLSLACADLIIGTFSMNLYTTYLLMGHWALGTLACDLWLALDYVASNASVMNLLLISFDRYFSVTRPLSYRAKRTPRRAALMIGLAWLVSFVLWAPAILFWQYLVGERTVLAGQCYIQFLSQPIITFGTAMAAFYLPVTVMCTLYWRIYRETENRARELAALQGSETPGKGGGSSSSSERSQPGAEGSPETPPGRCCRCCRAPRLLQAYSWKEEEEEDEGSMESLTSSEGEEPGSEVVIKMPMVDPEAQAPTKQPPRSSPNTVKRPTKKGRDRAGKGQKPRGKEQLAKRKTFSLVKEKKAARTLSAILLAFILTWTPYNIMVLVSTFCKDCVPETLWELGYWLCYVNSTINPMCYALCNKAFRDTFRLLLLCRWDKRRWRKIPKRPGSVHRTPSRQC

[9] = target: Zinc finger and BTB domain-containing protein 43 (Homo sapiens) (UniProt O43298); conditions: SUD4, Compound concentration 1.0 uM
Zinc finger and BTB domain-containing protein 43 (Homo sapiens), sequence (O43298 whole entry, the tested form may be a part): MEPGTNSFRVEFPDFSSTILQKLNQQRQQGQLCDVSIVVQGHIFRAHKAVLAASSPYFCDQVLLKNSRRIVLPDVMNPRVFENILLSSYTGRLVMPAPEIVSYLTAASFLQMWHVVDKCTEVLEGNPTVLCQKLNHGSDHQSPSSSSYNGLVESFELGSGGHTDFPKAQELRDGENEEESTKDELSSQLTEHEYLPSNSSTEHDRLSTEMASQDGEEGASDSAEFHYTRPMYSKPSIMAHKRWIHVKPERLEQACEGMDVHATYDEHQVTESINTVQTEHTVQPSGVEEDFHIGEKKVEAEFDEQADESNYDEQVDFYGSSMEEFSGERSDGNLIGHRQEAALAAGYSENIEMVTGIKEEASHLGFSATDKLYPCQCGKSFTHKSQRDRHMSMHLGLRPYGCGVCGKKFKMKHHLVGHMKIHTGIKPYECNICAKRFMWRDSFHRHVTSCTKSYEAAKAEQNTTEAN

[10] = target: T1, Zinc finger and BTB domain-containing protein 40 (Homo sapiens) (UniProt Q9NUA8); conditions: SUD4, Compound concentration 1.0 uM
T1 sequence (whole entry): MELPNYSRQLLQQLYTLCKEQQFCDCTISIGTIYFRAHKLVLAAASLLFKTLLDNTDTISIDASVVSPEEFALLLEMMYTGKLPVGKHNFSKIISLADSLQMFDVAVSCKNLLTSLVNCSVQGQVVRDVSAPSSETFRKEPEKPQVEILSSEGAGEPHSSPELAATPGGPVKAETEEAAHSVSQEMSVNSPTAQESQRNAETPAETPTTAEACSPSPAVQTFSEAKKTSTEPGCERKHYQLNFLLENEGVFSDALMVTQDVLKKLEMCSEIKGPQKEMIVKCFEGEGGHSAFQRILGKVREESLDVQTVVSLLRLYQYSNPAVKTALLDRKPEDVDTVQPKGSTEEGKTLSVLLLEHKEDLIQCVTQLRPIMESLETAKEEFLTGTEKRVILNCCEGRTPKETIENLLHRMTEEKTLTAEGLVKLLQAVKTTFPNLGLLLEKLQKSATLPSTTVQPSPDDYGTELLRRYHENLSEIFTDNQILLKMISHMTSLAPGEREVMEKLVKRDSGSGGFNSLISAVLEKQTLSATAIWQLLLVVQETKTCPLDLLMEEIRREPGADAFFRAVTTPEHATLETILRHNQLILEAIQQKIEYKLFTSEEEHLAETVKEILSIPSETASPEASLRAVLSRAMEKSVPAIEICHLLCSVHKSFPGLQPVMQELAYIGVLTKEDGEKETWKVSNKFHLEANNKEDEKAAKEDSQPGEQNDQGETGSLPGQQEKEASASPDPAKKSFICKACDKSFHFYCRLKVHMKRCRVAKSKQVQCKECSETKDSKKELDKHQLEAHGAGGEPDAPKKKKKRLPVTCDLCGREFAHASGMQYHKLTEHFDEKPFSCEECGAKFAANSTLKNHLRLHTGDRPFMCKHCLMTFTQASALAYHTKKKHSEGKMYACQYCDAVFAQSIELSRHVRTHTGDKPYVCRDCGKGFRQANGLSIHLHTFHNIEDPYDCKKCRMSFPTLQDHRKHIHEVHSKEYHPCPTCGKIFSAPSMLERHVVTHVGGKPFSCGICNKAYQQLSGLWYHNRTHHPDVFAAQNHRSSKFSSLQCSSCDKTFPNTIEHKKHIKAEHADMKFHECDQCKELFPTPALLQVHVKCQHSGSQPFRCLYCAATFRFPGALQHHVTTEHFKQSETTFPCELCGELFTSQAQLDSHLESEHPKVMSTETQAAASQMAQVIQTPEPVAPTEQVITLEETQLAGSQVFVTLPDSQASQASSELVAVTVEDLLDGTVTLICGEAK

[11] = target: B-cell lymphoma 6 protein (Homo sapiens, UniProt P41182); conditions: SUD4, Compound concentration 1.0 uM
[12] = target: T2, Zinc finger and BTB domain-containing protein 2 (Homo sapiens) (UniProt Q8N680); conditions: SUD4, Compound concentration 1.0 uM
T2 sequence (whole entry): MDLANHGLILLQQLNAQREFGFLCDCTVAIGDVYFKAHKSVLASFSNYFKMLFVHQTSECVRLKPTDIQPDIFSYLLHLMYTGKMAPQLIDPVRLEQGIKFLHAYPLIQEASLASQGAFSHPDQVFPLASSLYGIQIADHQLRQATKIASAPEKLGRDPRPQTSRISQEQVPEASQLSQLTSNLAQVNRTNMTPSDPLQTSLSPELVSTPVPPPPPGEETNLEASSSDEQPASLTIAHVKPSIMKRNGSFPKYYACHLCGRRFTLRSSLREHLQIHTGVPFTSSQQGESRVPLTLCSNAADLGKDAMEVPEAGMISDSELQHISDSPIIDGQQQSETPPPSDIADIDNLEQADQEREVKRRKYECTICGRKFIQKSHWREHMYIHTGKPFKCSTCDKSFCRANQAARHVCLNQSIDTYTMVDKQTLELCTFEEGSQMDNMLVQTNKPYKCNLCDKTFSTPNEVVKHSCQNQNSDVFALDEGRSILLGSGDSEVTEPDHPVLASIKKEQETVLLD

Calcium/calmodulin-dependent protein kinase type II subunit beta (Homo sapiens), sequence (Q13554 whole entry): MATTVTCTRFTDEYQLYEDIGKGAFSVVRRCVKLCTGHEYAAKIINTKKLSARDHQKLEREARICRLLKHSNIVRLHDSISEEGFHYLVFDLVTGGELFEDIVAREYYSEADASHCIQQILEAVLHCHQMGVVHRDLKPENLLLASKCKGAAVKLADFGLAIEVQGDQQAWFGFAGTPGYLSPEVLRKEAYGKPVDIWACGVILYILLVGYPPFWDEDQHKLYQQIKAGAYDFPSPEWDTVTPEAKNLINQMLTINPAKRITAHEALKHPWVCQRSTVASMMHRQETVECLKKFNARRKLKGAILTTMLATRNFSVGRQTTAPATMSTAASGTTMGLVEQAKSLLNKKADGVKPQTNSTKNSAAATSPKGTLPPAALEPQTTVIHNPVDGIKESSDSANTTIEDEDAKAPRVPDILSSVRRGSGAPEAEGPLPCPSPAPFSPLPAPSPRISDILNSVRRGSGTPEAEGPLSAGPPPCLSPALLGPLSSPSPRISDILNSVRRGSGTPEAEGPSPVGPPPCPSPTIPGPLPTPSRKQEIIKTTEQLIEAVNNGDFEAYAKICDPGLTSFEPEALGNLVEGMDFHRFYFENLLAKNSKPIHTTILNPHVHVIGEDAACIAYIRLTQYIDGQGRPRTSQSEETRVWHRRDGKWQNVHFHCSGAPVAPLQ
Aurora kinase B (Homo sapiens), sequence (Q96GD4 whole entry): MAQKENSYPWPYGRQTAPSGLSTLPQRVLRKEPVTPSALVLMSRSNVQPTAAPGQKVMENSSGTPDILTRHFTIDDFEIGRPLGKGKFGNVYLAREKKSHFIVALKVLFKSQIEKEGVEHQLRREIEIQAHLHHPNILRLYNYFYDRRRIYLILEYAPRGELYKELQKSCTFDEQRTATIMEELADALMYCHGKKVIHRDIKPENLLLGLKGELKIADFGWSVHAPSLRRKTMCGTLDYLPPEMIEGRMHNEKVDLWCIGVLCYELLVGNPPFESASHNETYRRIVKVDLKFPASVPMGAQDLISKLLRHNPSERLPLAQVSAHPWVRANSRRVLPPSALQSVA

- Tm [1]: 46 °C
- Tm [2]: 47 °C
- Tm [3]: 44 °C
- Tm [4]: 56 °C
- Tm [5]: 41 °C
- Tm [6]: 42 °C
- Tm [7]: 52 °C
- inhibition [8]: 3.3%
- LogFC [9]: 0.0194
- LogFC [10]: 0.0845
- LogFC [11]: -1.13
- LogFC [12]: 0.153
Structure (SMILES): C[C@@H]1CN(c2ncc(Cl)c(Nc3ccc4c(c3)n(CCC(C)(C)O)c(=O)n4C)n2)C[C@H](C)C1(F)F

— ChEMBL document CHEMBL5058646 (2022)
